Results from patent publication US20250186437A1, “CARBOLINE COMPOUNDS AND USE THEREOF” (PTC Therapeutics, Inc., priority 2021, published 2025).

Each compound was assayed on MOLM-13 cells (assay: MOLM-13 Cell Proliferation Assay (indicator of DHODH inhibition)). Conditions: Homo sapiens, 72 Hours of culture, CellTiter-Glo, no uridine.
Format: cell-based
Outline: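 Proliferation readout via CellTiter-Glo luminescence after 72 h compound treatment (37 °C, 5% CO2, 0.5% DMSO) of MOLM-13 cells seeded at 10^4 per well in RPMI 1640/10% FBS, used as a DHODH-inhibition indicator since these cells rely on de novo pyrimidine synthesis.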

IC50 [nM] | Structure (SMILES)
50.6 | Cc1nc(C#N)nc(N2CCc3c([nH]c4ccc(Cl)cc34)[C@@H]2c2cnc(N3CCOCC3)nc2)n1 [Compound 415, 4-{(1S)-6-chloro-1-[2-(morpholin-4-yl)pyrimidin-5-yl]-1,3,4,9-tetrahydro-2H-pyrido[3,4-b]indol-2-yl}-6-methyl-1,3,5-triazine-2-carbonitrile]
52.2 | Cc1nc(C)nc(N2CCc3c([nH]c4ccc(Cl)cc34)C2c2cnc(N3CC4CC3CO4)nc2)n1 (centres unmarked) [Compound 336, 6-chloro-2-(4,6-dimethyl-1,3,5-triazin-2-yl)-1-[2-(2-oxa-5-azabicyclo[2.2.1]heptan-5-yl)pyrimidin-5-yl]-2,3,4,9-tetrahydro-1H-pyrido[3,4-b]indole]
0.7 | Cc1ccc(C2c3[nH]c4ccc(Cl)cc4c3CCN2c2nncc(C(F)(F)F)n2)c(F)c1F (centres unmarked) [Compound 403, 6-chloro-1-(2,3-difluoro-4-methylphenyl)-2-[5-(trifluoromethyl)-1,2,4-triazin-3-yl]-2,3,4,9-tetrahydro-1H-pyrido[3,4-b]indole]
65 | Cc1ccc([C@H]2c3[nH]c4ccc(Cl)cc4c3CCN2c2nc(N)nc(C(F)(F)F)n2)cc1 [Compound 426, 4-[(1S)-6-chloro-1-(4-methylphenyl)-1,3,4,9-tetrahydro-2H-pyrido[3,4-b]indol-2-yl]-6-(trifluoromethyl)-1,3,5-triazin-2-amine]
4.8 | N#Cc1ccc(C2c3[nH]c4ccc(Cl)cc4c3CCN2c2nccc(C(F)(F)F)n2)cc1 (centres unmarked) [Compound 447, 4-{6-chloro-2-[4-(trifluoromethyl)pyrimidin-2-yl]-2,3,4,9-tetrahydro-1H-pyrido[3,4-b]indol-1-yl}benzonitrile]
0.8 | Cc1ccc(C2c3[nH]c4ccc(Cl)c(F)c4c3CCN2c2nc(C(F)(F)F)cc(C(F)(F)F)n2)c(F)c1F (centres unmarked) [Compound 209, 2-[4,6-bis(trifluoromethyl)pyrimidin-2-yl]-6-chloro-1-(2,3-difluoro-4-methylphenyl)-5-fluoro-2,3,4,9-tetrahydro-1H-pyrido[3,4-b]indole]
1.8 | Cc1ccc(C2c3[nH]c4cc(F)c(Cl)cc4c3CCN2c2nc(Cl)cc(Cl)n2)cc1 (centres unmarked) [Compound 16, 6-chloro-2-(4,6-dichloropyrimidin-2-yl)-7-fluoro-1-(4-methylphenyl)-2,3,4,9-tetrahydro-1H-pyrido[3,4-b]indole]
0.9 | Cc1nc(N2CCc3c([nH]c4ccc(Cl)cc34)[C@@H]2c2cnc(N3CCOCC3)nc2)nc(C(F)(F)F)n1 [Compound 466, (1S)-6-chloro-2-[4-methyl-6-(trifluoromethyl)-1,3,5-triazin-2-yl]-1-[2-(morpholin-4-yl)pyrimidin-5-yl]-2,3,4,9-tetrahydro-1H-pyrido[3,4-b]indole]
3.1 | CN(C)c1nc(N2CCc3c([nH]c4ccc(Cl)cc34)[C@@H]2c2ccc(N3CCOCC3)nc2)nc(C(F)(F)F)n1 [Compound 443, 4-{(1S)-6-chloro-1-[6-(morpholin-4-yl)pyridin-3-yl]-1,3,4,9-tetrahydro-2H-pyrido[3,4-b]indol-2-yl}-N,N-dimethyl-6-(trifluoromethyl)-1,3,5-triazin-2-amine]
5.6 | Cc1nc(C)nc(N2CCc3c([nH]c4c(N)cc(Cl)cc34)C2c2cnc(N3CCOCC3)nc2)n1 (centres unmarked) [Compound 309, 6-chloro-2-(4,6-dimethyl-1,3,5-triazin-2-yl)-1-[2-(morpholin-4-yl)pyrimidin-5-yl]-2,3,4,9-tetrahydro-1H-pyrido[3,4-b]indol-8-amine]
4 | OCCCc1ccc(C2c3[nH]c4cc(F)c(Cl)cc4c3CCN2c2nccc(C(F)(F)F)n2)cc1 (centres unmarked) [Compound 156, 3-(4-{6-chloro-7-fluoro-2-[4-(trifluoromethyl)pyrimidin-2-yl]-2,3,4,9-tetrahydro-1H-pyrido[3,4-b]indol-1-yl}phenyl)propan-1-ol]
1.5 | Cc1ccc([C@H]2c3[nH]c4ccc(Cl)cc4c3CCN2c2nc(C(F)(F)F)nc(C(Cl)(Cl)Cl)n2)c(F)c1F [Compound 505, (1S)-6-chloro-1-(2,3-difluoro-4-methylphenyl)-2-[4-(trichloromethyl)-6-(trifluoromethyl)-1,3,5-triazin-2-yl]-2,3,4,9-tetrahydro-1H-pyrido[3,4-b]indole]
5 | Cc1nc(N2CCc3c([nH]c4cc(F)c(Cl)cc34)C2c2cccc(F)c2F)nc(C)c1C (centres unmarked) [Compound 171, 6-chloro-1-(2,3-difluorophenyl)-7-fluoro-2-(4,5,6-trimethylpyrimidin-2-yl)-2,3,4,9-tetrahydro-1H-pyrido[3,4-b]indole]
0.4 | FC(F)(F)c1nc(N2CCc3c([nH]c4ccc(-n5nccn5)cc34)[C@@H]2c2ccc(N3CCOCC3)nc2)nc(C(F)(F)F)n1 [Compound 486, (1S)-2-[4,6-bis(trifluoromethyl)-1,3,5-triazin-2-yl]-1-[6-(morpholin-4-yl)pyridin-3-yl]-6-(2H-1,2,3-triazol-2-yl)-2,3,4,9-tetrahydro-1H-pyrido[3,4-b]indole]
1.9 | Cc1ccc([C@H]2c3[nH]c4ccc(Cl)cc4c3CCN2c2nc(C)c(F)c(C#N)n2)cc1 [Compound 417, 2-[(1S)-6-chloro-1-(4-methylphenyl)-1,3,4,9-tetrahydro-2H-pyrido[3,4-b]indol-2-yl]-5-fluoro-6-methylpyrimidine-4-carbonitrile]
1.1 | Cc1ccc(C2c3[nH]c4ccc(Cl)c(F)c4c3CCN2c2ncc(F)c(C)n2)c(F)c1F (centres unmarked) [Compound 114, 6-chloro-1-(2,3-difluoro-4-methylphenyl)-5-fluoro-2-(5-fluoro-4-methylpyrimidin-2-yl)-2,3,4,9-tetrahydro-1H-pyrido[3,4-b]indole]
0.8 | COCCOc1ncc([C@H]2c3[nH]c4ccc(Cl)cc4c3CCN2c2nc(C(F)(F)F)nc(C(F)(F)F)n2)cn1 [Compound 534, (1S)-2-[4,6-bis(trifluoromethyl)-1,3,5-triazin-2-yl]-6-chloro-1-[2-(2-methoxyethoxy)pyrimidin-5-yl]-2,3,4,9-tetrahydro-1H-pyrido[3,4-b]indole]
41.6 | Cc1nc(C)nc(N2CCc3c([nH]c4ccc(Cl)cc34)C2c2ccc(N3C[C@@H]4C[C@H]3CO4)nc2)n1 (stereo partly drawn) [Compound 377, 6-chloro-2-(4,6-dimethyl-1,3,5-triazin-2-yl)-1-{6-[(1S,4S)-2-oxa-5-azabicyclo[2.2.1]heptan-5-yl]pyridin-3-yl}-2,3,4,9-tetrahydro-1H-pyrido[3,4-b]indole]
162 | Fc1ccc(C2c3[nH]c4ccc(F)c(F)c4c3CCN2c2ncc(Cl)cn2)cc1 (centres unmarked) [Compound 85, 2-(5-chloropyrimidin-2-yl)-5,6-difluoro-1-(4-fluorophenyl)-2,3,4,9-tetrahydro-1H-pyrido[3,4-b]indole]
26.3 | Cc1cc(C)nc(N2CCc3c([nH]c4cc(F)c(Cl)cc34)C2c2ccc(F)cc2)n1 (centres unmarked) [Compound 19, 6-chloro-2-(4,6-dimethylpyrimidin-2-yl)-7-fluoro-1-(4-fluorophenyl)-2,3,4,9-tetrahydro-1H-pyrido[3,4-b]indole]
44.6 | CS(=O)(=O)c1ccc(C2c3[nH]c4cc(F)c(Cl)cc4c3CCN2c2ncc(F)cn2)cc1 (centres unmarked) [Compound 107, 6-chloro-7-fluoro-2-(5-fluoropyrimidin-2-yl)-1-[4-(methanesulfonyl)phenyl]-2,3,4,9-tetrahydro-1H-pyrido[3,4-b]indole]
2.2 | Cc1ccc(C2c3[nH]c4ccc(Cl)cc4c3CCN2c2nccc(C(F)(F)F)n2)cc1F (centres unmarked) [Compound 354, 6-chloro-1-(3-fluoro-4-methylphenyl)-2-[4-(trifluoromethyl)pyrimidin-2-yl]-2,3,4,9-tetrahydro-1H-pyrido[3,4-b]indole]
3 | Fc1ccc(C2c3[nH]c4ccc(Cl)c(F)c4c3CCN2c2nccc(C(F)(F)F)n2)c(F)n1 (centres unmarked) [Compound 186, 6-chloro-1-(2,6-difluoropyridin-3-yl)-5-fluoro-2-[4-(trifluoromethyl)pyrimidin-2-yl]-2,3,4,9-tetrahydro-1H-pyrido[3,4-b]indole]
1.2 | Cc1ccc(C2c3[nH]c4ccc(Cl)c(F)c4c3CCN2c2nccc(C#N)n2)c(F)c1F (centres unmarked) [Compound 198, 2-[6-chloro-1-(2,3-difluoro-4-methylphenyl)-5-fluoro-1,3,4,9-tetrahydro-2H-pyrido[3,4-b]indol-2-yl]pyrimidine-4-carbonitrile]
13.5 | Cc1nc(C)nc(N2CCc3c([nH]c4c(O)cc(Cl)cc34)C2c2ccc(N3CCOCC3)nc2)n1 (centres unmarked) [Compound 339, 6-chloro-2-(4,6-dimethyl-1,3,5-triazin-2-yl)-1-[6-(morpholin-4-yl)pyridin-3-yl]-2,3,4,9-tetrahydro-1H-pyrido[3,4-b]indol-8-ol]
41.6 | Fc1ccc(C2c3[nH]c4cc(F)c(Cl)cc4c3CCN2c2ncc(C(F)(F)F)cn2)cc1 (centres unmarked) [Compound 98, 6-chloro-7-fluoro-1-(4-fluorophenyl)-2-[5-(trifluoromethyl)pyrimidin-2-yl]-2,3,4,9-tetrahydro-1H-pyrido[3,4-b]indole]
8.5 | Cc1cnn(-c2ccc3[nH]c4c(c3c2)CCN(c2nc(C(F)(F)F)cc(C(F)(F)F)n2)C4c2cnc(N3CCOCC3)nc2)n1 (centres unmarked) [Compound 483, 2-[4,6-bis(trifluoromethyl)pyrimidin-2-yl]-6-(4-methyl-2H-1,2,3-triazol-2-yl)-1-[2-(morpholin-4-yl)pyrimidin-5-yl]-2,3,4,9-tetrahydro-1H-pyrido[3,4-b]indole]
2.9 | Cc1ccc(C2c3[nH]c4ccc(-n5nccn5)cc4c3CCN2c2nccc(C(F)(F)F)n2)cc1 (centres unmarked) [Compound 287, 1-(4-methylphenyl)-6-(2H-1,2,3-triazol-2-yl)-2-[4-(trifluoromethyl)pyrimidin-2-yl]-2,3,4,9-tetrahydro-1H-pyrido[3,4-b]indole]
3.8 | C[C@@H]1CN(c2ncc([C@H]3c4[nH]c5ccc(Cl)cc5c4CCN3c3nc(C(F)(F)F)cc(C(F)(F)F)n3)cn2)CCN1 [Compound 511, (1S)-2-[4,6-bis(trifluoromethyl)pyrimidin-2-yl]-6-chloro-1-{2-[(3R)-3-methylpiperazin-1-yl]pyrimidin-5-yl}-2,3,4,9-tetrahydro-1H-pyrido[3,4-b]indole]
